Experimental findings from US9981037B2, “Combination therapy of beta-glycolipids and antibodies for the treatment of immune-related disorders” (HADASIT MEDICAL RESEARCH SERVICES AND DEVELOPMENT LTD., priority 2008, dated 2018) are described below.

Experiment [1] concerns Peripheral blood lymphocytes. In words: Proliferation of peripheral blood lymphocytes stimulated in vitro with anti-CD3 antibody. It counts as in vivo, human. As for the experimental part:
Nine subjects (3/group) were orally administered 0.2 mg, 1.0 mg or 5.0 mg of OKT3 daily for 5 days and immune parameters measured on days 5, 10 and 30 days (FIG. 12). Six subjects (3/group) received 7.5 mg of beta glucosylceramide in combination with 0.2 mg or 1.0 mg of OKT3 and 3 subjects received GC alone. All subjects were treated with 20 mg of Omeprazole (a proton pump inhibitor) during the 5 days of dosing. Dosing occurred in the morning before breakfast at the study site following a 8 hours fast. PBMCs were isolated from blood samples using Ficol Hypaque solution. To measure proliferation, 2×10^5 cells per well were cultured in triplicate in RPMI 1640 medium with 5% FBS (Biological Industries, Israel), 100 units/ml penicillin, 100 µg/ml streptomycin, 1% Glutamine, 1% non essential […], 1% sodium pyruvate and β-mercapto-ethanol (Biological Industries, Israel). Cells were stimulated with pre-coated antibodies (in 200 μl PBS/well):μg/well of anti OKT-3 mAb (Ortho Biotech Inc, New Jersey, USA) or 5 μg/ml soluble anti-CD3 mAb (eBioscience, CA, USA) or 2.5 μg/ml anti-CD28 mAb (R&D systems, MN, USA). One set of the above wells were added nothing while 10 μg of GC was added to a similar set for 72 h in culture at 37° C. with 5% CO2. Supernatants were collected for IL-13, IL-17 and IFN-γ. Enzyme-linked immunosorbent assays for these cytokines were performed according to the manufacturer's protocol (R&D Systems, Minneapolis, Minn.). For TGF-β, 2×10^5 cells per well were cultured in serum free media (Biotarget, Biological Industries, Israel). After collecting the supernatants, 1 µCi [^3H]thymidine (Amersham Biosciences, UK) was added to each well, and cells were harvested 18 h later. Proliferation was measured by scintillation counting. Unlike what has been reported for treatment with IV anti-CD3 (which is also given at a dose of 5 mg per day for five days), no decrease in the CD3+ lymphocyte counts or modulation of CD3 from the T cell surface was observed. […] An identical pattern was observed when results were calculated as stimulation indices.

The subject of experiment [2] is IgG and IgM repertoire. In words: Antigen microarrays of serum IgG and IgM reactivities. It counts as in vivo, human. An excerpt:
A panel of self and non-self proteins, peptides and lipids were spotted onto Epoxi slides (TeleChem, CA, USA) as described [Quintana, F. J. et al. Proc. Natl. Acad. Sci. USA 101 Suppl 2:14615-14621 (2004)]. Since several of the self-antigens included in the antigen microarrays used by the invention, are targeted by natural antibodies [Coutinho, A. et al. Curr. Opin. Immunol. 7:812-818 (1995); Quintana, F. J. and Cohen, I. R. Biomed Pharmacother 58:276-281 (2004)], the inventors could detect both the up and the down-regulation of preexisting IgG and IgM reactivities. Sera from OKT3-treated subjects were assayed at a 1/10 dilution and the IgG or IgM reactivities displaying significant changes upon treatment were identified. Briefly, antigens were spotted in replicates of 6, the microarrays were blocked for 1 h at 37° C. with 1% bovine serum albumin, and incubated for 2 hr at 37° C. with a 1:200 dilution of the test serum in blocking buffer. The arrays were then washed and incubated for 45 minutes at 37° C. with a 1:500 dilution of detection antibodies: a goat […] Cy3-conjugated antibody or a goat anti-mouse IgM Cy5-conjugated antibody (Jackson ImmunoResearch, West Grove, Pa.). The arrays were scanned with a ScanArray 4000× scanner (GSI Luminomics, Billerica, Mass., USA) and the IgM and IgG results were recorded separately.
Raw data were normalized and analyzed using the GeneSpring software (Silicon Genetics, Redwood City, Calif.). Antigen reactivity was defined by the mean intensity of binding to the replicates of that antigen on the microarray. The data were analyzed with the Wilcoxon rank-sum test, a non-parametric test robust to outliers, using the Benjamini and Hochberg false discovery method with a p-value of 0.2 to determine significance [Stekel, D. Microarray Bioinformatics. Cambridge University Press, Cambridge (2003)]. To perform the hierarchical clustering of the antibody reactivities a pair wise average linkage algorithm based on Pearson's correlation was used as a distance measure [Stekel (2003) ibid.]
Antigen microarrays constitute a new tool for studying the immune system in health [Quintana, F. J. and Cohen, I. R. Biomed Pharmacother 58:276-281 (2004); Merbl, Y. et al. Clin. Invest. 117:712-718 (2007); Quintana, F. J. et al. J. Autoimmun. 21:65-75 (2003)] and disease [Goldschmidt, Y. et al. Technical Report MCS03-071-018 (2003); Hueber, W. et al. Arthritis Rheum. 52:2645-2655 (2005)]. The inventors therefore used an antigen microarray containing a broad panel of antigens that included self and non self proteins, heat shock proteins, and infectious agents to investigate the effects of oral OKT3 on the immune repertoire. Both increases and decreases of immunoglobulin reactivities were measured.
No changes occurred in the IgM repertoire.

Turning to “OKT3: murine monoclonal anti-CD3 antibody (Orthoclone OKT-3, Ortho Biotech)”, the “subjects with increase in proliferation that peaked at day five” value in experiment [1] (0.2 mg oral) was “one subject”; in experiment [1] (1.0 mg oral daily for 5 days, three subjects), “all three subjects”; in experiment [1] (5 mg oral) it was “two subjects”. For the same substance, the IgG reactivities affected in experiment [2] (0.2 mg dose) is 4; in experiment [2] (1.0 mg dose) it was 37; in experiment [2] (5.0 mg dose), 65. The entries for the “downregulated IgG reactivities” value in experiment [2] (1.0 mg dose) and in experiment [2] (5 mg dose) were 19 and 18, respectively. The “up regulated IgG reactivities” value in experiment [2] (1.0 mg dose) came out at 18. Also, the “up-regulated IgG reactivities” value in experiment [2] (5 mg dose) worked out at 47. Besides, the “changes in the IgM repertoire” value in experiment [2] (oral OKT3) is listed as “No changes”.
